Measured values from patent US20260248787A9, “MEDICAMENT FOR TREATING CANCER COMPRISING OPTICALLY ACTIVE AZABICYCLO RING DERIVATIVE” (Sumitomo Pharma Co., Ltd., priority 2023, published 2026).

Tested on: MOLM-13 cells
Test: Tumor-bearing mice transplanted with MOLM-13 cells, with gilteritinib, T/C (Example 12)
Type: in vivo
Details: MOLM-13 tumor-bearing mice; oral; 30 mg/kg; 18 days
Experimental: The antitumor effects of the present compound and gilteritinib were evaluated. The present compound was weighed and dissolved in 0.5 w/v % Methyl Cellulose 400 solution to give the compound concentrations of 20 mg/mL and 10 mg/mL. Gilteritinib was weighed and suspended in 0.5 w/v % Methyl Cellulose 400 solution to give the compound concentrations of 3 mg/mL.
MOLM-13 cells (DSMZ) were intradermally implanted around the ventral region of 5-week old NOD. CB17-PrkdcSCID/J mice (female, The Jackson Laboratory Japan) at 1×10^6 cells/mouse. After confirming the engraftment of MOLM-13 cells 6 days after the transplantation, the present compound was orally administered to the mice at a dose of 100 mg/kg or 200 mg/kg, and gilteritinib was orally administered to the mice at a dose of 30 mg/kg, once a day for 18 days. The tumor volume was measured over time from the start of the administration, and the reduction effect of the tumor volume due to the compound-administration was evaluated. The tumor volume was calculated by the following formula using short axis and long axis of the tumor measured with an electronic caliper (Mitutoyo).
The control administration group in which only the solvent was administered and the test substance administration group were compared, and T/C was calculated using the following formula to evaluate the antitumor effect.

CCc1nc(C(N)=O)c(Nc2ccc(N3CCC(N4CCN(C)CC4)CC3)c(OC)c2)nc1NC1CCOCC1 [gilteritinib, reference compound]
T/C: 5.3%
